Results reported in the NIST ThermoML archive (doi:10.1016/j.fluid.2017.12.037).

Assay: xn = mol fraction of the nth substance listed
Conditions: Gas, Buoyancy - hydrostatic balance with magnetic suspension - one sinker

C=C(F)C(F)(F)F [2,3,3,3-tetrafluoro-1-propene] + FCF
Conditions	mass density [kg/m3]
279.8 K, 225 kPa, x1 = 0.202	6.518
279.81 K, 366 kPa, x1 = 0.202	10.881
279.82 K, 422 kPa, x1 = 0.61	18.046
279.82 K, 531 kPa, x1 = 0.202	16.362
279.99 K, 139 kPa, x1 = 0.61	5.52
280 K, 292 kPa, x1 = 0.61	12.065
289.13 K, 223 kPa, x1 = 0.202	6.201
289.13 K, 326 kPa, x1 = 0.202	9.243
289.13 K, 498 kPa, x1 = 0.202	14.57
289.14 K, 652 kPa, x1 = 0.202	19.613
289.24 K, 435 kPa, x1 = 0.61	17.849
289.25 K, 300 kPa, x1 = 0.61	11.915
289.27 K, 142 kPa, x1 = 0.61	5.456
289.35 K, 825 kPa, x1 = 0.062	21.899
289.47 K, 272 kPa, x1 = 0.062	6.547
289.52 K, 465 kPa, x1 = 0.062	11.568
298.56 K, 1030 kPa, x1 = 0.062	27.002
298.65 K, 448 kPa, x1 = 0.61	17.642
298.65 K, 795 kPa, x1 = 0.062	19.996
298.67 K, 524 kPa, x1 = 0.062	12.632
298.68 K, 146 kPa, x1 = 0.61	5.4
298.68 K, 314 kPa, x1 = 0.062	7.355
298.7 K, 309 kPa, x1 = 0.61	11.815
298.95 K, 208 kPa, x1 = 0.366	6.462
298.96 K, 416 kPa, x1 = 0.366	13.396
298.97 K, 629 kPa, x1 = 0.366	21.025
299.11 K, 197 kPa, x1 = 0.202	5.25
299.11 K, 460 kPa, x1 = 0.202	12.798
299.11 K, 653 kPa, x1 = 0.202	18.744
299.11 K, 817 kPa, x1 = 0.202	24.131
308.21 K, 285 kPa, x1 = 0.062	6.408
308.21 K, 465 kPa, x1 = 0.062	10.702
308.21 K, 692 kPa, x1 = 0.062	16.408
308.21 K, 839 kPa, x1 = 0.062	20.316
308.21 K, 1102 kPa, x1 = 0.062	27.74
308.23 K, 1301 kPa, x1 = 0.062	33.802
308.29 K, 170 kPa, x1 = 0.61	6.134
308.3 K, 340 kPa, x1 = 0.61	12.602
308.32 K, 577 kPa, x1 = 0.61	22.346
308.33 K, 769 kPa, x1 = 0.61	30.942
308.47 K, 201 kPa, x1 = 0.366	6.029
308.47 K, 387 kPa, x1 = 0.366	11.937
308.47 K, 560 kPa, x1 = 0.366	17.726
308.47 K, 794 kPa, x1 = 0.366	26.137
308.69 K, 226 kPa, x1 = 0.202	5.868
308.69 K, 390 kPa, x1 = 0.202	10.341
308.69 K, 569 kPa, x1 = 0.202	15.462
308.7 K, 735 kPa, x1 = 0.202	20.457
308.7 K, 1050 kPa, x1 = 0.202	30.682
317.75 K, 163 kPa, x1 = 0.062	3.497
317.75 K, 406 kPa, x1 = 0.062	8.95
317.75 K, 648 kPa, x1 = 0.062	14.699
317.75 K, 910 kPa, x1 = 0.062	21.311
317.75 K, 1331 kPa, x1 = 0.062	32.968
317.78 K, 1625 kPa, x1 = 0.062	42.032
317.89 K, 139 kPa, x1 = 0.61	4.816
317.89 K, 309 kPa, x1 = 0.61	11.009
317.9 K, 527 kPa, x1 = 0.61	19.436
317.92 K, 735 kPa, x1 = 0.61	28.033
317.92 K, 929 kPa, x1 = 0.61	36.73
318.29 K, 219 kPa, x1 = 0.202	5.48
318.29 K, 398 kPa, x1 = 0.202	10.192
318.29 K, 586 kPa, x1 = 0.202	15.349
318.29 K, 790 kPa, x1 = 0.202	21.254
318.29 K, 1058 kPa, x1 = 0.202	29.49
318.3 K, 1336 kPa, x1 = 0.202	38.819
318.53 K, 165 kPa, x1 = 0.366	4.746
318.53 K, 351 kPa, x1 = 0.366	10.354
318.53 K, 563 kPa, x1 = 0.366	17.123
318.53 K, 766 kPa, x1 = 0.366	23.969
318.53 K, 1009 kPa, x1 = 0.366	32.745
327.52 K, 157 kPa, x1 = 0.61	5.289
327.52 K, 329 kPa, x1 = 0.61	11.37
327.52 K, 536 kPa, x1 = 0.61	19.029
327.53 K, 930 kPa, x1 = 0.61	35.068
327.54 K, 1122 kPa, x1 = 0.61	43.758
327.55 K, 734 kPa, x1 = 0.61	26.847
328.33 K, 223 kPa, x1 = 0.062	4.64
328.34 K, 637 kPa, x1 = 0.062	13.854
328.34 K, 945 kPa, x1 = 0.062	21.307
328.34 K, 1335 kPa, x1 = 0.062	31.333
328.34 K, 1696 kPa, x1 = 0.062	41.656
328.34 K, 2027 kPa, x1 = 0.062	52.145
328.43 K, 227 kPa, x1 = 0.202	5.515
328.43 K, 367 kPa, x1 = 0.202	9.049
328.43 K, 626 kPa, x1 = 0.202	15.83
328.43 K, 849 kPa, x1 = 0.202	22.032
328.43 K, 1140 kPa, x1 = 0.202	30.631
328.43 K, 1427 kPa, x1 = 0.202	39.78
328.43 K, 1696 kPa, x1 = 0.202	49.141
328.58 K, 1144 kPa, x1 = 0.366	36.066
328.58 K, 1280 kPa, x1 = 0.366	41.182
328.6 K, 618 kPa, x1 = 0.366	18.221
328.6 K, 894 kPa, x1 = 0.366	27.268
328.61 K, 203 kPa, x1 = 0.366	5.679
328.61 K, 380 kPa, x1 = 0.366	10.866
337.94 K, 261 kPa, x1 = 0.062	5.321
337.94 K, 1368 kPa, x1 = 0.062	30.983
337.95 K, 1030 kPa, x1 = 0.062	22.524
337.95 K, 1871 kPa, x1 = 0.062	44.844
337.95 K, 2216 kPa, x1 = 0.062	54.98
338.06 K, 1097 kPa, x1 = 0.202	27.951
338.06 K, 1440 kPa, x1 = 0.202	38.107
338.06 K, 1722 kPa, x1 = 0.202	47.144
338.06 K, 2012 kPa, x1 = 0.202	57.214
338.07 K, 229 kPa, x1 = 0.202	5.349
338.07 K, 435 kPa, x1 = 0.202	10.38
338.07 K, 663 kPa, x1 = 0.202	16.152
338.07 K, 900 kPa, x1 = 0.202	22.468
338.13 K, 157 kPa, x1 = 0.61	5.11
338.13 K, 347 kPa, x1 = 0.61	11.583
338.13 K, 545 kPa, x1 = 0.61	18.632
338.14 K, 742 kPa, x1 = 0.61	26.034
338.14 K, 949 kPa, x1 = 0.61	34.303
338.15 K, 1176 kPa, x1 = 0.61	43.906
338.15 K, 1363 kPa, x1 = 0.61	52.402
338.27 K, 391 kPa, x1 = 0.366	10.828
338.27 K, 1611 kPa, x1 = 0.366	51.607
338.28 K, 203 kPa, x1 = 0.366	5.523
338.28 K, 605 kPa, x1 = 0.366	17.163
338.28 K, 888 kPa, x1 = 0.366	25.992
338.28 K, 1124 kPa, x1 = 0.366	33.805
338.28 K, 1339 kPa, x1 = 0.366	41.354
346.7 K, 514 kPa, x1 = 0.202	11.999
346.7 K, 754 kPa, x1 = 0.202	17.999
346.7 K, 1075 kPa, x1 = 0.202	26.432
346.71 K, 102 kPa, x1 = 0.202	2.301
346.71 K, 314 kPa, x1 = 0.202	7.219
346.71 K, 1395 kPa, x1 = 0.202	35.395
346.71 K, 1836 kPa, x1 = 0.202	48.831
346.71 K, 2339 kPa, x1 = 0.202	66.017
346.72 K, 2053 kPa, x1 = 0.202	55.971
347.61 K, 2249 kPa, x1 = 0.062	52.666
347.62 K, 600 kPa, x1 = 0.062	12.06
347.62 K, 1099 kPa, x1 = 0.062	23.044
347.62 K, 1445 kPa, x1 = 0.062	31.254
347.62 K, 2663 kPa, x1 = 0.062	65.472
347.8 K, 256 kPa, x1 = 0.61	8.159
347.81 K, 464 kPa, x1 = 0.61	15.105
347.81 K, 667 kPa, x1 = 0.61	22.236
347.81 K, 880 kPa, x1 = 0.61	30.083
347.81 K, 1108 kPa, x1 = 0.61	38.968
347.81 K, 1320 kPa, x1 = 0.61	47.76
347.81 K, 1481 kPa, x1 = 0.61	54.813
347.81 K, 1715 kPa, x1 = 0.61	65.61
347.93 K, 143 kPa, x1 = 0.366	3.726
347.93 K, 390 kPa, x1 = 0.366	10.422
347.93 K, 675 kPa, x1 = 0.366	18.538
347.93 K, 897 kPa, x1 = 0.366	25.186
347.93 K, 1198 kPa, x1 = 0.366	34.699
347.93 K, 1496 kPa, x1 = 0.366	44.776
347.93 K, 1753 kPa, x1 = 0.366	54.093
347.94 K, 2000 kPa, x1 = 0.366	63.729
